Where two headings read alike, the source gives them in different places.
Target: Recombinant human cathepsin S (CatS) (Homo sapiens, UniProt P25774)
Assay: Recombinant human cathepsin S (CatS) inhibition assay, fluorogenic substrate Z-Valine-Valine-Arginine-AMC;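 note: Baculovirus-expressed CatS in pH 5.0 sodium acetate buffer with DTT and NaCl, fluorescence read each minute over 20 min, inhibition derived from rate slope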

Recombinant human cathepsin S (CatS), sequence (P25774 115-331): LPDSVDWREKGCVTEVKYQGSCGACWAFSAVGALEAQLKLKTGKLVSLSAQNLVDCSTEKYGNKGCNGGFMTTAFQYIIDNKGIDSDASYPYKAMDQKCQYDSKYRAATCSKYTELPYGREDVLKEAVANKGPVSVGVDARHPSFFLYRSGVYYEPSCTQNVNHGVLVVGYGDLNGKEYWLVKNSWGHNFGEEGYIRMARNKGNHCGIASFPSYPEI

Structure (SMILES): CS(=O)(=O)c1ccccc1S(=O)(=O)NCCCc1cc(-c2nn(CCCN3CCC(N4CCCC4=O)CC3)c3c2CN(S(C)(=O)=O)CC3)ccc1Cl [Example 100, N-{3-[2-Chloro-5-(5-methanesulfonyl-1-{3-[4-(2-oxo-pyrrolidin-1-yl)-piperidin-1-yl]-propyl}-4,5,6,7-tetrahydro-1H-pyrazolo[4,3-c]pyridin-3-yl)-phenyl]-propyl}-2-methanesulfonyl-benzenesulfonamide]
- IC50: 2.5 µM

Structure (SMILES): CS(=O)(=O)N1CCc2c(c(-c3ccc(Cl)c(CCCN4CCCC4)c3)nn2CCCN2CCC(N3CCCC3=O)CC2)C1 [Example 101, 1-[1-(3-{3-[4-Chloro-3-(3-pyrrolidin-1-yl-propyl)-phenyl]-5-methanesulfonyl-4,5,6,7-tetrahydro-pyrazolo[4,3-c]pyridin-1-yl}-propyl)-piperidin-4-yl]-pyrrolidin-2-one]
- IC50: 2.06 µM

Structure (SMILES): CS(=O)(=O)N1CCc2c(c(-c3ccc(Cl)c(CCCN4CCCCC4)c3)nn2CCCN2CCC(N3CCCC3=O)CC2)C1 [Example 102, 1-[1-(3-{3-[4-Chloro-3-(3-piperidin-1-yl-propyl)-phenyl]-5-methanesulfonyl-4,5,6,7-tetrahydro-pyrazolo[4,3-c]pyridin-1-yl}-propyl)-piperidin-4-yl]-pyrrolidin-2-one]
- IC50: 0.84 µM

Structure (SMILES): CC1CCCN(CCCc2cc(-c3nn(CCCN4CCC(N5CCCC5=O)CC4)c4c3CN(S(C)(=O)=O)CC4)ccc2Cl)C1 (stereo not drawn) [Example 103, 1-{1-[3-(3-{4-Chloro-3-[3-(3-methyl-piperidin-1-yl)-propyl]-phenyl}-5-methanesulfonyl-4,5,6,7-tetrahydro-pyrazolo[4,3-c]pyridin-1-yl)-propyl]-piperidin-4-yl}-pyrrolidin-2-one]
- IC50: 0.31 µM

Structure (SMILES): CS(=O)(=O)N1CCc2c(c(-c3ccc(Cl)c(CCCN4CCC(F)(F)CC4)c3)nn2CCCN2CCC(N3CCCC3=O)CC2)C1 [Example 104, 1-{1-[3-(3-{4-Chloro-3-[3-(4,4-difluoro-piperidin-1-yl)-propyl]-phenyl}-5-methanesulfonyl-4,5,6,7-tetrahydro-pyrazolo[4,3-c]pyridin-1-yl)-propyl]-piperidin-4-yl}-pyrrolidin-2-one]
- IC50 (CatS IC50): 0.93 µM

Structure (SMILES): CS(=O)(=O)N1CCc2c(c(-c3ccc(Cl)c(CCCN4CCOCC4)c3)nn2CCCN2CCC(N3CCCC3=O)CC2)C1 [Example 105, 1-[1-(3-{3-[4-Chloro-3-(3-morpholin-4-yl-propyl)-phenyl]-5-methanesulfonyl-4,5,6,7-tetrahydro-pyrazolo[4,3-c]pyridin-1-yl}-propyl)-piperidin-4-yl]-pyrrolidin-2-one]
- IC50: 1.43 µM

Structure (SMILES): CN1CCN(CCCc2cc(-c3nn(CCCN4CCC(N5CCCC5=O)CC4)c4c3CN(S(C)(=O)=O)CC4)ccc2Cl)CC1 [Example 106, 1-{1-[3-(3-{4-Chloro-3-[3-(4-methyl-piperazin-1-yl)-propyl]-phenyl}-5-methanesulfonyl-4,5,6,7-tetrahydro-pyrazolo[4,3-c]pyridin-1-yl)-propyl]-piperidin-4-yl}-pyrrolidin-2-one]
- IC50: 4.42 µM

Structure (SMILES): CS(=O)(=O)N1CCc2c(c(-c3ccc(Cl)c(CCCN4CCCCCC4)c3)nn2CCCN2CCC(N3CCCC3=O)CC2)C1 [Example 107, 1-[1-(3-{3-[3-(3-Azepan-1-yl-propyl)-4-chloro-phenyl]-5-methanesulfonyl-4,5,6,7-tetrahydro-pyrazolo[4,3-c]pyridin-1-yl}-propyl)-piperidin-4-yl]-pyrrolidin-2-one]
- IC50: 0.5 µM

Structure (SMILES): CS(=O)(=O)N1CCc2c(c(-c3ccc(Cl)c(CCCNC4CCCC4)c3)nn2CCCN2CCC(N3CCCC3=O)CC2)C1 [Example 108, 1-[1-(3-{3-[4-Chloro-3-(3-cyclopentylamino-propyl)-phenyl]-5-methanesulfonyl-4,5,6,7-tetrahydro-pyrazolo[4,3-c]pyridin-1-yl}-propyl)-piperidin-4-yl]-pyrrolidin-2-one]
- IC50: 0.66 µM

Structure (SMILES): CS(=O)(=O)N1CCc2c(c(-c3ccc(Cl)c(CCCCN4CCCC4)c3)nn2CCCN2CCC(N3CCCC3=O)CC2)C1 [Example 109, 1-[1-(3-{3-[4-Chloro-3-(4-pyrrolidin-1-yl-butyl)-phenyl]-5-methanesulfonyl-4,5,6,7-tetrahydro-pyrazolo[4,3-c]pyridin-1-yl}-propyl)-piperidin-4-yl]-pyrrolidin-2-one]
- IC50: 2.27 µM

Structure (SMILES): CS(=O)(=O)N1CCc2c(c(-c3ccc(Cl)c(CCCCN4CCCCC4)c3)nn2CCCN2CCC(N3CCCC3=O)CC2)C1 [Example 110, 1-[1-(3-{3-[4-Chloro-3-(4-piperidin-1-yl-butyl)-phenyl]-5-methanesulfonyl-4,5,6,7-tetrahydro-pyrazolo[4,3-c]pyridin-1-yl}-propyl)-piperidin-4-yl]-pyrrolidin-2-one]
- IC50: 3.03 µM

Structure (SMILES): CC1CCCN(CCCCc2cc(-c3nn(CCCN4CCC(N5CCCC5=O)CC4)c4c3CN(S(C)(=O)=O)CC4)ccc2Cl)C1 (stereo not drawn) [Example 111, 1-{1-[3-(3-{4-Chloro-3-[4-(3-methyl-piperidin-1-yl)-butyl]-phenyl}-5-methanesulfonyl-4,5,6,7-tetrahydro-pyrazolo[4,3-c]pyridin-1-yl)-propyl]-piperidin-4-yl}-pyrrolidin-2-one]
- IC50: 2.04 µM

Structure (SMILES): CN1CCN(CCCCc2cc(-c3nn(CCCN4CCC(N5CCCC5=O)CC4)c4c3CN(S(C)(=O)=O)CC4)ccc2Cl)CC1 [Example 112, 1-{1-[3-(3-{4-Chloro-3-[4-(4-methyl-piperazin-1-yl)-butyl]-phenyl}-5-methanesulfonyl-4,5,6,7-tetrahydro-pyrazolo[4,3-c]pyridin-1-yl)-propyl]-piperidin-4-yl}-pyrrolidin-2-one]
- IC50: 4.92 µM

Structure (SMILES): CS(=O)(=O)N1CCc2c(c(-c3ccc(Cl)c(CCCCN4CCOCC4)c3)nn2CCCN2CCC(N3CCCC3=O)CC2)C1 [Example 113, 1-[1-(3-{3-[4-Chloro-3-(4-morpholin-4-yl-butyl)-phenyl]-5-methanesulfonyl-4,5,6,7-tetrahydro-pyrazolo[4,3-c]pyridin-1-yl}-propyl)-piperidin-4-yl]-pyrrolidin-2-one]
- IC50: 3.58 µM

Structure (SMILES): CS(=O)(=O)N1CCc2c(c(-c3ccc(Cl)c(CCCCN4CCCCCC4)c3)nn2CCCN2CCC(N3CCCC3=O)CC2)C1 [Example 114, 1-[1-(3-{3-[3-(4-Azepan-1-yl-butyl)-4-chloro-phenyl]-5-methanesulfonyl-4,5,6,7-tetrahydro-pyrazolo[4,3-c]pyridin-1-yl}-propyl)-piperidin-4-yl]-pyrrolidin-2-one]
- IC50: 1.52 µM

Structure (SMILES): CS(=O)(=O)N1CCc2c(c(-c3ccc(Cl)c(CCCCNC4CCCC4)c3)nn2CCCN2CCC(N3CCCC3=O)CC2)C1 [Example 115, 1-[1-(3-{3-[4-Chloro-3-(4-cyclopentylamino-butyl)-phenyl]-5-methanesulfonyl-4,5,6,7-tetrahydro-pyrazolo[4,3-c]pyridin-1-yl}-propyl)-piperidin-4-yl]-pyrrolidin-2-one]
- IC50: 1.69 µM

Structure (SMILES): CS(=O)(=O)N1CCc2c(c(-c3ccc(C(F)(F)F)c(C#Cc4ccc(Cl)cc4)c3)nn2CC(O)CN2CCC(N3CCCC3=O)CC2)C1 (stereo not drawn) [Example 116, 1-[1-(3-{3-[3-(4-Chloro-phenylethynyl)-4-trifluoromethyl-phenyl]-5-methanesulfonyl-4,5,6,7-tetrahydro-pyrazolo[4,3-c]pyridin-1-yl}-2-hydroxy-propyl)-piperidin-4-yl]-pyrrolidin-2-one]
- IC50: 0.04 µM

Structure (SMILES): COC(=O)C1CCN(CC(O)Cn2nc(-c3ccc(C(F)(F)F)c(C#Cc4ccc(Cl)cc4)c3)c3c2CCN(S(C)(=O)=O)C3)CC1 (stereo not drawn) [Example 117, 1-(3-{3-[3-(4-Chloro-phenylethynyl)-4-trifluoromethyl-phenyl]-5-methanesulfonyl-4,5,6,7-tetrahydro-pyrazolo[4,3-c]pyridin-1-yl}-2-hydroxy-propyl)-piperidine-4-carboxylic acid methyl ester]
- IC50: 0.04 µM

Structure (SMILES): CS(=O)(=O)N1CCc2c(c(-c3ccc(C(F)(F)F)c(C#Cc4ccc(Cl)cc4)c3)nn2CC(O)CN2CCC(C(N)=O)CC2)C1 (stereo not drawn) [Example 119, 1-(3-{3-[3-(4-Chloro-phenylethynyl)-4-trifluoromethyl-phenyl]-5-methanesulfonyl-4,5,6,7-tetrahydro-pyrazolo[4,3-c]pyridin-1-yl}-2-hydroxy-propyl)-piperidine-4-carboxylic acid amide]
- IC50: 0.06 µM

Structure (SMILES): CN(C)c1ccc2c(n1)n(C1CCN(CC(O)Cn3nc(-c4ccc(C(F)(F)F)c(C#Cc5ccc(Cl)cc5)c4)c4c3CCN(S(C)(=O)=O)C4)CC1)c(=O)n2C (stereo not drawn) [Example 120, 3-[1-(3-{3-[3-(4-Chloro-phenylethynyl)-4-trifluoromethyl-phenyl]-5-methanesulfonyl-4,5,6,7-tetrahydro-pyrazolo[4,3-c]pyridin-1-yl}-2-hydroxy-propyl)-piperidin-4-yl]-5-dimethylamino-1-methyl-1,3-dihydro-imidazo[4,5-b]pyridin-2-one]
- IC50: 0.03 µM

Structure (SMILES): CC(C)(C)OC(=O)NC1CCN(CC(O)Cn2nc(-c3ccc(C(F)(F)F)c(C#Cc4ccc(Cl)cc4)c3)c3c2CCN(S(C)(=O)=O)C3)CC1 (stereo not drawn) [Example 121, [1-(3-{3-[3-(4-Chloro-phenylethynyl)-4-trifluoromethyl-phenyl]-5-methanesulfonyl-4,5,6,7-tetrahydro-pyrazolo[4,3-c]pyridin-1-yl}-2-hydroxy-propyl)-piperidin-4-yl]-carbamic acid tert-butyl ester]
- IC50: 0.15 µM

Structure (SMILES): CS(=O)(=O)N1CCc2c(c(-c3ccc(C(F)(F)F)c(C#Cc4ccc(Cl)cc4)c3)nn2CC(O)CN2CCOCC2)C1 (stereo not drawn) [Example 122, 1-{3-[3-(4-Chloro-phenylethynyl)-4-trifluoromethyl-phenyl]-5-methanesulfonyl-4,5,6,7-tetrahydro-pyrazolo[4,3-c]pyridin-1-yl}-3-morpholin-4-yl-propan-2-ol]
- IC50: 0.26 µM

Structure (SMILES): CS(=O)(=O)N1CCc2c(c(-c3ccc(Cl)c(C#Cc4ccc(Cl)cc4)c3)nn2CC(O)CN2CCC(N3CCCC3=O)CC2)C1 (stereo not drawn) [Example 123]
- IC50: 0.01 µM

Structure (SMILES): CS(=O)(=O)N1CCc2c(c(-c3ccc(Cl)c(C#Cc4ccc(Cl)cc4)c3)nn2CC(O)CN2CCOCC2)C1 (stereo not drawn) [Example 124, 1-{3-[4-Chloro-3-(4-chloro-phenylethynyl)-phenyl]-5-methanesulfonyl-4,5,6,7-tetrahydro-pyrazolo[4,3-c]pyridin-1-yl}-3-morpholin-4-yl-propan-2-ol]
- IC50: 0.15 µM

From patent US20080200454A1, “CARBON-LINKED TETRAHYDRO-PYRAZOLO-PYRIDINE MODULATORS OF CATHEPSIN S” (priority 2007, published 2008)
